Our source for the inhibition and MIC values is ChEMBL document CHEMBL4052617, “Antibacterial activity of N-methylbenzofuro[3,2-b]quinoline and N-methylbenzoindolo[3,2-b]-quinoline derivatives and study of their mode of action” (2017).

The MIC is the lowest concentration that inhibits growth of the organism. A higher MIC goes with a less susceptible organism.

For test [1], the target named is T1, Cell division protein FtsZ (Staphylococcus aureus) (UniProt P0A031).
T1 sequence (whole entry): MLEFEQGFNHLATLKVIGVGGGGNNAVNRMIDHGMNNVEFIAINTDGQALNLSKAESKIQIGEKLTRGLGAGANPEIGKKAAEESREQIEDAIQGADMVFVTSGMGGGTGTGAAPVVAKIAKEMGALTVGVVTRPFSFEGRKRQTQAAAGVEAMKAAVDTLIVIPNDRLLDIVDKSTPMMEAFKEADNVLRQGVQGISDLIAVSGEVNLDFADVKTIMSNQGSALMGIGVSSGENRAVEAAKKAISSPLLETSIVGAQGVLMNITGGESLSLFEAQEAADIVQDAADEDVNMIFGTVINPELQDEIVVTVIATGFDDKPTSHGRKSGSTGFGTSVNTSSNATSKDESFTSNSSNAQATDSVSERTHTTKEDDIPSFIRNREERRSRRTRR
Nature of the test: Inhibition of recombinant N-terminal His6-tagged Staphylococcus aureus ATCC 29213 FtzS polymerization expressed in Escherichia coli BL21 (DE3) cells at 16 ug/ml in presence of GTP by fluorescence spectrometry method.

Test [2] has as its system Escherichia coli. The test is described as follows: Antibacterial activity against Escherichia coli ATCC […] expressing NDM-1 beta-lactamase after 18 hrs by Mueller-Hinton broth microdilution method. The class given is functional.
The test system of test [3] is Enterococcus faecium. The test is described as follows: Antibacterial activity against antibiotic-susceptile Enterococcus faecium ATCC 49624 after 18 hrs by brain heart infusion broth microdilution method. Format: functional. The conditions noted are these: ATCC 49624, 18 h. (In general: Dilution methods test growth across graded concentrations, often in twofold steps.)

In test [4] the test system is Enterococcus faecium. The test is described as follows: Antibacterial activity against vancomycin-resistant Enterococcus faecium ATCC 700221 after 18 hrs by brain heart infusion broth microdilution method. Format: functional. The conditions noted are these: ATCC 700221, 18 h.
For another test, the system named is Bacillus subtilis. Nature of the test: Antibacterial activity against Bacillus subtilis 168 after 18 hrs by Mueller-Hinton broth microdilution method. The class given is functional. The settings on record: subsp. subtilis str. 168, 18 h.
In a further test the test system is Klebsiella pneumoniae. Nature of the test: Antibacterial activity against Klebsiella pneumoniae ATCC BAA2470 expressing NDM-1 beta-lactamase after 18 hrs by Mueller-Hinton broth microdilution method. The class given is functional. The settings on record: ATCC BAA2470, 18 h.
The target in test [5] is T1, Cell division protein FtsZ (Staphylococcus aureus). Nature of the test: Inhibition of recombinant N-terminal His6-tagged Staphylococcus aureus FtzS expressed in Escherichia coli BL21 (DE3) cells assessed as reduction in protein polymer thickness at 8 ug/ml preincubated for 10 mins followed by GTP addition after 15 mins by phosphotungstic acid staining based transmission electron microscopic method.

For test [6] the target is unchanged. Nature of the test: Inhibition of recombinant N-terminal His6-tagged Staphylococcus aureus FtzS expressed in Escherichia coli BL21 (DE3) cells assessed as reduction in protein protofilament bundling at 8 ug/ml preincubated for 10 mins followed by GTP addition after 15 mins by phosphotungstic acid staining based transmission electron microscopic method.
For another test, the system named is Pseudomonas aeruginosa. The test is described as follows: Antibacterial activity against multidrug-resistant Pseudomonas aeruginosa ATCC BAA2108 after 18 hrs by Mueller-Hinton broth microdilution method. Format: functional. The settings on record: ATCC BAA2108, 18 h.
For test [7], the system named is Staphylococcus aureus. Nature of the test: Antibacterial activity against Staphylococcus aureus ATCC 29213 after 18 hrs by cation adjusted Mueller-Hinton broth microdilution method. Format: functional. The conditions noted are these: ATCC 29213, 18 h.
The subject of test [8] is Staphylococcus aureus. Nature of the test: Antibacterial activity against methicillin-resistant Staphylococcus aureus ATCC BAA41 after 18 hrs by cation adjusted Mueller-Hinton broth microdilution method. The class given is functional. The conditions noted are these: ATCC BAA41, 18 h.
For test [9], the system named is Escherichia coli. Nature of the test: Antibacterial activity against Escherichia coli ATCC 25922 after 18 hrs by Mueller-Hinton broth microdilution method. Format: functional. The conditions noted are these: ATCC 25922, 18 h.

Calls of active or inactive are those of the source. No cut-off for these calls is given here.

Turning to `COc1ccc(Nc2c3ccccc3[n+](C)c3c2oc2ccccc23)cc1.[I-]`, the inhibition result in test [1], in [5] and in test [6] was “Active” each time. For the same compound, the MIC was found to be 8 µg/mL in the test on Escherichia coli [2]; 6 µg/mL in the test on Enterococcus faecium [3]; 6 µg/mL against Enterococcus faecium [4]; 4 µg/mL in the test with Bacillus subtilis; 64 µg/mL against Klebsiella pneumoniae; 64 µg/mL in the test with Pseudomonas aeruginosa. For the same compound, the MIC came out at 4 µg/mL in the test on Staphylococcus aureus [7], 4 µg/mL with Staphylococcus aureus [8] and 8 µg/mL in the test with Escherichia coli [9].
Turning to `Cc1ccccc1Nc1c2ccccc2[n+](C)c2c1[nH]c1ccccc12.[I-]`, the MIC against Escherichia coli [2] was 12 µg/mL; in the test on Enterococcus faecium [3], 8 µg/mL; against Enterococcus faecium [4], 8 µg/mL; against Bacillus subtilis, 6 µg/mL; with Klebsiella pneumoniae, greater than 64 µg/mL; against Pseudomonas aeruginosa, greater than 64 µg/mL. Moreover, the values for the MIC with Staphylococcus aureus [7], against Staphylococcus aureus [8] and with Escherichia coli [9] were 6 µg/mL, 6 µg/mL and 12 µg/mL, respectively.
`Cc1ccc(Nc2c3ccccc3[n+](C)c3c2[nH]c2ccccc23)cc1C.[I-]`: the MIC was 8 µg/mL with Escherichia coli [2]; 8 µg/mL with Enterococcus faecium [3]; 8 µg/mL against Enterococcus faecium [4]; 4 µg/mL against Bacillus subtilis; greater than 64 µg/mL in the test on Klebsiella pneumoniae; greater than 64 µg/mL in the test on Pseudomonas aeruginosa. Besides, the MIC in the test with Staphylococcus aureus [7] was determined as 4 µg/mL; in the test on Staphylococcus aureus [8], 4 µg/mL; against Escherichia coli [9] it was 8 µg/mL.
As to `C[n+]1c2ccccc2c(Nc2ccccc2)c2oc3ccccc3c21.[I-]`, the MIC is 16 µg/mL against Escherichia coli [2]; 12 µg/mL in the test with Enterococcus faecium [3]; 12 µg/mL in the test on Enterococcus faecium [4]; 8 µg/mL in the test with Bacillus subtilis; greater than 64 µg/mL in the test on Klebsiella pneumoniae; greater than 64 µg/mL against Pseudomonas aeruginosa. The minimal inhibitory concentration (MIC) was found to be 8 µg/mL against Staphylococcus aureus [7], 8 µg/mL in the test on Staphylococcus aureus [8] and 16 µg/mL against Escherichia coli [9].
On to `CCOc1ccccc1Nc1c2ccccc2[n+](C)c2c1oc1ccccc12.[I-]`, for which the minimal inhibitory concentration (MIC) against Escherichia coli [2] is 12 µg/mL; against Enterococcus faecium [3], 8 µg/mL; in the test on Enterococcus faecium [4], 8 µg/mL; in the test on Bacillus subtilis, 6 µg/mL; against Klebsiella pneumoniae, greater than 64 µg/mL; against Pseudomonas aeruginosa, greater than 64 µg/mL. In addition, the minimal inhibitory concentration (MIC) against Staphylococcus aureus [7] is 6 µg/mL; with Staphylococcus aureus [8], 6 µg/mL; against Escherichia coli [9], 12 µg/mL.
As for `COc1ccc2cc3[n+](cc2c1OC)CCc1cc2c(cc1-3)OCO2.[Cl-]` [BERBERINE CHLORIDE], the MIC was greater than 192 µg/mL in the test on Escherichia coli [2]; greater than 192 µg/mL with Enterococcus faecium [3]; greater than 192 µg/mL against Enterococcus faecium [4]; 128 µg/mL against Bacillus subtilis; greater than 192 µg/mL against Klebsiella pneumoniae; greater than 192 µg/mL in the test with Pseudomonas aeruginosa. Also, the MIC against Staphylococcus aureus [7] is 128 µg/mL; with Staphylococcus aureus [8] it was 192 µg/mL; with Escherichia coli [9] it was greater than 192 µg/mL.
As to `Cc1cc(C)cc(Nc2c3ccccc3[n+](C)c3c2[nH]c2ccccc23)c1.[I-]`, the MIC in the test with Escherichia coli [2] is 8 µg/mL; in the test with Enterococcus faecium [3], 8 µg/mL; against Enterococcus faecium [4], 8 µg/mL; in the test on Bacillus subtilis it was 4 µg/mL; against Klebsiella pneumoniae, greater than 64 µg/mL; in the test on Pseudomonas aeruginosa, greater than 64 µg/mL. Also, the MIC came to 4 µg/mL against Staphylococcus aureus [7], 4 µg/mL in the test on Staphylococcus aureus [8] and 8 µg/mL against Escherichia coli [9].
In the case of `Cc1ccc(Nc2c3ccccc3[n+](C)c3c2oc2ccccc23)cc1.[I-]`, the MIC was 12 µg/mL against Escherichia coli [2]; 8 µg/mL against Enterococcus faecium [3]; 8 µg/mL against Enterococcus faecium [4]; 6 µg/mL with Bacillus subtilis; greater than 64 µg/mL with Klebsiella pneumoniae; greater than 64 µg/mL in the test on Pseudomonas aeruginosa. In addition, the results for the MIC against Staphylococcus aureus [7], in the test on Staphylococcus aureus [8] and in the test with Escherichia coli [9] were 6 µg/mL, 6 µg/mL and 12 µg/mL, respectively.
In the case of `C[n+]1c2ccccc2c(Nc2ccc(Cl)cc2)c2[nH]c3ccccc3c21.[I-]`, the MIC against Escherichia coli [2] was found to be 8 µg/mL; against Enterococcus faecium [3] it was 6 µg/mL; in the test on Enterococcus faecium [4] it was 6 µg/mL; against Bacillus subtilis, 4 µg/mL; in the test with Klebsiella pneumoniae, 64 µg/mL; against Pseudomonas aeruginosa, 64 µg/mL. For the same compound, the MIC against Staphylococcus aureus [7] was 4 µg/mL; against Staphylococcus aureus [8], 4 µg/mL; against Escherichia coli [9], 8 µg/mL.
For the compound `C[n+]1c2ccccc2c(Nc2ccc(F)cc2)c2oc3ccccc3c21.[I-]`, the MIC against Escherichia coli [2] was 12 µg/mL; against Enterococcus faecium [3], 8 µg/mL; against Enterococcus faecium [4], 8 µg/mL; in the test with Bacillus subtilis, 6 µg/mL; in the test on Klebsiella pneumoniae it was greater than 64 µg/mL; with Pseudomonas aeruginosa, greater than 64 µg/mL. In addition, the MIC came out at 6 µg/mL against Staphylococcus aureus [7], 6 µg/mL in the test with Staphylococcus aureus [8] and 12 µg/mL with Escherichia coli [9].
As to `C[n+]1c2ccccc2c(Nc2ccc(Cl)cc2)c2oc3ccccc3c21.[I-]`, the MIC was 12 µg/mL against Escherichia coli [2]; 8 µg/mL in the test on Enterococcus faecium [3]; 8 µg/mL against Enterococcus faecium [4]; 6 µg/mL against Bacillus subtilis; greater than 64 µg/mL with Klebsiella pneumoniae; greater than 64 µg/mL with Pseudomonas aeruginosa. For the same compound, the figures for the MIC in the test with Staphylococcus aureus [7], against Staphylococcus aureus [8] and in the test on Escherichia coli [9] were 6 µg/mL, 6 µg/mL and 12 µg/mL, respectively.
Take `CCOc1ccc(Nc2c3ccccc3[n+](C)c3c2[nH]c2ccccc23)cc1.[I-]`: the MIC against Escherichia coli [2] worked out at 6 µg/mL; in the test on Enterococcus faecium [3], 4 µg/mL; against Enterococcus faecium [4], 4 µg/mL; in the test on Bacillus subtilis, 2 µg/mL; in the test on Klebsiella pneumoniae, 48 µg/mL; with Pseudomonas aeruginosa it was 48 µg/mL. Moreover, the MIC is 2 µg/mL against Staphylococcus aureus [7], 2 µg/mL against Staphylococcus aureus [8] and 6 µg/mL in the test with Escherichia coli [9].
On to `C[n+]1c2ccccc2c(Nc2cccc(F)c2)c2[nH]c3ccccc3c21.[I-]`, for which the MIC in the test on Escherichia coli [2] was 12 µg/mL; against Enterococcus faecium [3], 6 µg/mL; with Enterococcus faecium [4], 6 µg/mL; against Bacillus subtilis, 6 µg/mL; in the test with Klebsiella pneumoniae, greater than 64 µg/mL; in the test on Pseudomonas aeruginosa, greater than 64 µg/mL. Further, the MIC against Staphylococcus aureus [7] is 6 µg/mL; in the test on Staphylococcus aureus [8], 6 µg/mL; against Escherichia coli [9], 12 µg/mL.
Turning to `Cc1ccc(Nc2c3ccccc3[n+](C)c3c2[nH]c2ccccc23)cc1F.[I-]`, the MIC turned out to be 8 µg/mL with Escherichia coli [2]; 8 µg/mL with Enterococcus faecium [3]; 8 µg/mL in the test on Enterococcus faecium [4]; 4 µg/mL against Bacillus subtilis; 64 µg/mL in the test with Klebsiella pneumoniae; 64 µg/mL against Pseudomonas aeruginosa. Also, the minimum inhibitory concentration (MIC) in the test on Staphylococcus aureus [7] is 4 µg/mL; against Staphylococcus aureus [8] it was 4 µg/mL; in the test with Escherichia coli [9], 8 µg/mL.
Take `Cc1ccccc1Nc1c2ccccc2[n+](C)c2c1oc1ccccc12.[I-]`: the MIC against Escherichia coli [2] is 16 µg/mL; against Enterococcus faecium [3], 12 µg/mL; against Enterococcus faecium [4], 12 µg/mL; against Bacillus subtilis it was 8 µg/mL; against Klebsiella pneumoniae it was greater than 64 µg/mL; in the test on Pseudomonas aeruginosa, greater than 64 µg/mL. In addition, the figures for the MIC in the test with Staphylococcus aureus [7], against Staphylococcus aureus [8] and with Escherichia coli [9] were 8 µg/mL, 8 µg/mL and 16 µg/mL, respectively.
`C[n+]1c2ccccc2c(Nc2ccc(F)cc2F)c2oc3ccccc3c21.[I-]`: the MIC against Escherichia coli [2] is 12 µg/mL; in the test with Enterococcus faecium [3], 8 µg/mL; in the test on Enterococcus faecium [4] it was 8 µg/mL; in the test on Bacillus subtilis, 6 µg/mL; in the test with Klebsiella pneumoniae, greater than 64 µg/mL; against Pseudomonas aeruginosa, greater than 64 µg/mL. Further, the figures for the MIC with Staphylococcus aureus [7], in the test with Staphylococcus aureus [8] and with Escherichia coli [9] were 6 µg/mL, 6 µg/mL and 12 µg/mL, respectively.
